Measured values taken from the NIST ThermoML archive (doi:10.1016/j.jct.2011.05.018).

Assay: xn = mol fraction of the nth substance listed
Conditions: 101 kPa, Liquid; for viscosity: Capillary tube (Ostwald / Ubbelohde) method; for speed of sound: Pulse-echo method; for mass density: Pycnometric method

COc1ccc(C=O)cc1 [4-methoxybenzaldehyde] + Cc1cccc(O)c1
Conditions | mass density [kg/m3] | speed of sound [m/s] | viscosity [mPa·s]
303.15 K, x1 = 0.0883 | 1031.6 | 1487.6 | 8.513
303.15 K, x1 = 0.1789 | 1037.8 | 1507.8 | 8.028
303.15 K, x1 = 0.2719 | 1044 | 1528.6 | 7.569
303.15 K, x1 = 0.3674 | 1052.6 | 1550.3 | 7.051
303.15 K, x1 = 0.4656 | 1060.7 | 1572.5 | 6.528
303.15 K, x1 = 0.5665 | 1068 | 1595.6 | 5.969
303.15 K, x1 = 0.6703 | 1076.4 | 1619.1 | 5.331
303.15 K, x1 = 0.777 | 1088 | 1643.4 | 4.593
303.15 K, x1 = 0.8869 | 1104.5 | 1668.4 | 3.93
303.15 K, x1 = 1 | 1125.2 | 1694.3 | 3.251
308.15 K, x1 = 0.0883 | 1026.7 | 1471.4 | 7.108
308.15 K, x1 = 0.1789 | 1032.4 | 1490.9 | 6.747
308.15 K, x1 = 0.2719 | 1038 | 1511 | 6.421
308.15 K, x1 = 0.3674 | 1045.4 | 1532.1 | 6.046
308.15 K, x1 = 0.4656 | 1052.3 | 1553.4 | 5.659
308.15 K, x1 = 0.5665 | 1060 | 1575.6 | 5.237
308.15 K, x1 = 0.6703 | 1066.1 | 1598.2 | 4.741
308.15 K, x1 = 0.777 | 1077.2 | 1621.6 | 4.151
308.15 K, x1 = 0.8869 | 1092.6 | 1645.7 | 3.648
308.15 K, x1 = 1 | 1111.6 | 1670.7 | 3.131
313.15 K, x1 = 0.0883 | 1022.8 | 1455.7 | 5.894
313.15 K, x1 = 0.1789 | 1028.4 | 1473.1 | 5.629
313.15 K, x1 = 0.2719 | 1034.8 | 1490.7 | 5.393
313.15 K, x1 = 0.3674 | 1042.8 | 1509.2 | 5.13
313.15 K, x1 = 0.4656 | 1049.1 | 1528.1 | 4.858
313.15 K, x1 = 0.5665 | 1056.8 | 1547.6 | 4.555
313.15 K, x1 = 0.6703 | 1064.4 | 1567.4 | 4.181
313.15 K, x1 = 0.777 | 1075.1 | 1588.1 | 3.724
313.15 K, x1 = 0.8869 | 1090.9 | 1609.3 | 3.34
313.15 K, x1 = 1 | 1109.5 | 1631.3 | 2.961
318.15 K, x1 = 0.0883 | 1019.2 | 1437.7 | 4.849
318.15 K, x1 = 0.1789 | 1026.5 | 1449.6 | 4.655
318.15 K, x1 = 0.2719 | 1033.4 | 1461.5 | 4.47
318.15 K, x1 = 0.3674 | 1041.6 | 1474.1 | 4.272
318.15 K, x1 = 0.4656 | 1048.2 | 1487 | 4.085
318.15 K, x1 = 0.5665 | 1055.2 | 1500.1 | 3.868
318.15 K, x1 = 0.6703 | 1062.5 | 1513.5 | 3.586
318.15 K, x1 = 0.777 | 1073.3 | 1527.5 | 3.236
318.15 K, x1 = 0.8869 | 1088.4 | 1542 | 2.949
318.15 K, x1 = 1 | 1104.7 | 1557 | 2.682

COc1ccc(C=O)cc1 [4-methoxybenzaldehyde] + Cc1ccccc1O
Conditions | mass density [kg/m3] | speed of sound [m/s] | viscosity [mPa·s]
303.15 K, x1 = 0.0875 | 1039.2 | 1507.7 | 7.163
303.15 K, x1 = 0.1774 | 1044.2 | 1526.3 | 6.824
303.15 K, x1 = 0.2699 | 1050.1 | 1545.5 | 6.519
303.15 K, x1 = 0.3651 | 1058.5 | 1565 | 6.202
303.15 K, x1 = 0.4631 | 1067.1 | 1585.2 | 5.778
303.15 K, x1 = 0.564 | 1074.3 | 1611.2 | 5.319
303.15 K, x1 = 0.668 | 1081.3 | 1637 | 4.811
303.15 K, x1 = 0.7753 | 1093.2 | 1658.9 | 4.261
303.15 K, x1 = 0.8859 | 1106.6 | 1681.5 | 3.758
303.15 K, x1 = 1 | 1125.2 | 1694.3 | 3.251
308.15 K, x1 = 0.0875 | 1033.8 | 1488.3 | 5.762
308.15 K, x1 = 0.1774 | 1038.2 | 1506.2 | 5.54
308.15 K, x1 = 0.2699 | 1043.4 | 1524.9 | 5.361
308.15 K, x1 = 0.3651 | 1050.6 | 1544.2 | 5.168
308.15 K, x1 = 0.4631 | 1058.4 | 1564 | 4.874
308.15 K, x1 = 0.564 | 1065 | 1589.4 | 4.56
308.15 K, x1 = 0.668 | 1071.5 | 1613.8 | 4.196
308.15 K, x1 = 0.7753 | 1082.8 | 1635.2 | 3.815
308.15 K, x1 = 0.8859 | 1095.3 | 1657.2 | 3.475
308.15 K, x1 = 1 | 1111.6 | 1670.7 | 3.131
313.15 K, x1 = 0.0875 | 1030.2 | 1470.7 | 4.162
313.15 K, x1 = 0.1774 | 1034.7 | 1486.3 | 4.072
313.15 K, x1 = 0.2699 | 1040.9 | 1502.6 | 4.007
313.15 K, x1 = 0.3651 | 1047.3 | 1519.6 | 3.936
313.15 K, x1 = 0.4631 | 1055.4 | 1536.9 | 3.806
313.15 K, x1 = 0.564 | 1062.1 | 1560.3 | 3.673
313.15 K, x1 = 0.668 | 1070 | 1580 | 3.494
313.15 K, x1 = 0.7753 | 1082.1 | 1598.1 | 3.291
313.15 K, x1 = 0.8859 | 1094.9 | 1617.6 | 3.126
313.15 K, x1 = 1 | 1109.5 | 1631.3 | 2.961
318.15 K, x1 = 0.0875 | 1026.3 | 1449.6 | 2.269
318.15 K, x1 = 0.1774 | 1031.9 | 1460.1 | 2.313
318.15 K, x1 = 0.2699 | 1038.3 | 1470.9 | 2.363
318.15 K, x1 = 0.3651 | 1044.3 | 1482.2 | 2.414
318.15 K, x1 = 0.4631 | 1052.8 | 1493.9 | 2.451
318.15 K, x1 = 0.564 | 1059.5 | 1511.3 | 2.496
318.15 K, x1 = 0.668 | 1067.7 | 1524.3 | 2.543
318.15 K, x1 = 0.7753 | 1078.8 | 1536.6 | 2.589
318.15 K, x1 = 0.8859 | 1090.1 | 1549.5 | 2.631
318.15 K, x1 = 1 | 1104.7 | 1557 | 2.682

Cc1ccc(O)cc1 [4-methylphenol] + COc1ccc(C=O)cc1
x2 = 0
Conditions | mass density [kg/m3] | speed of sound [m/s] | viscosity [mPa·s]
303.15 K | 1026.5 | 1468.4 | 9.54
308.15 K | 1022 | 1455.8 | 8.119
313.15 K | 1018.1 | 1443.7 | 6.741
318.15 K | 1013.9 | 1432.7 | 5.469
